For six molecules, IC50 and viability, T/C results are on record in PubChem BioAssay AID2060329 (Molecular Pharmacology Branch, DTP, NCI, 2025).

pIC50: −log10 of the molar value. Where “and” joins values, the source holds several entries; their conditions need not be identical. Equal entries are not always repeated. Bounds are passed on as bounds.

The test concerns MCF7 multi-cell spheroids with HUVEC/MSC, viability. The test can be described thus: Anticancer human tumor MCF7 cell line growth inhibition [IpAb].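 On all read-outs here: spheroids exposed to agents for seven days before readout.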 To be noted: for viability, T/C: stronger effect = lower value. In short, it runs like this:
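Combinations with ipatasertib or abemaciclib were tested on tumour spheroids holding HUVEC (25%) and MSC (15%) alongside 60% malignant cells. Top concentration was at or near clinical Cmax (10 microM if undefined), descending in half-log steps.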

Where [1] appears, read: curve of first compound, second compound 0.1 µM.
[2] abbreviates: curve of first compound, second compound 0.316 µM.
Setting [3] is: curve of first compound, second compound 1 µM.
The mark [4] stands for this setting: curve of first compound, second compound 3.16 µM.
The mark [5] stands for this setting: curve of first compound, second compound 10 µM.
Setting [6] is: second compound 0.1 µM, first compound 0.0316 µM.
Setting [7] is: second compound 0.1 µM, first compound 0.1 µM.
Where [8] appears, read: second compound 0.1 µM, first compound 0.316 µM.
[9] abbreviates: second compound 0.1 µM, first compound 1 µM.
[10] abbreviates: second compound 0.1 µM, first compound 3.16 µM.
[11] abbreviates: second compound 0.1 µM, first compound 10 µM.
[12] abbreviates: second compound 0.316 µM, first compound 0.0316 µM.
[13] abbreviates: second compound 0.316 µM, first compound 0.1 µM.
Setting [14] is: second compound 0.316 µM, first compound 0.316 µM.
[15] abbreviates: second compound 0.316 µM, first compound 1 µM.
Setting [16] is: second compound 0.316 µM, first compound 3.16 µM.
The mark [17] stands for this setting: second compound 0.316 µM, first compound 10 µM.
The mark [18] stands for this setting: second compound 1 µM, first compound 0.0316 µM.
[19] abbreviates: second compound 1 µM, first compound 0.1 µM.
Where [20] appears, read: second compound 1 µM, first compound 0.316 µM.
Where [21] appears, read: second compound 1 µM, first compound 1 µM.
Setting [22] is: second compound 1 µM, first compound 3.16 µM.
The mark [23] stands for this setting: second compound 1 µM, first compound 10 µM.
Where [24] appears, read: second compound 3.16 µM, first compound 0.0316 µM.
The mark [25] stands for this setting: second compound 3.16 µM, first compound 0.1 µM.
The mark [26] stands for this setting: second compound 3.16 µM, first compound 0.316 µM.
The mark [27] stands for this setting: second compound 3.16 µM, first compound 1 µM.
The mark [28] stands for this setting: second compound 3.16 µM, first compound 3.16 µM.
Setting [29] is: second compound 3.16 µM, first compound 10 µM.
The mark [30] stands for this setting: second compound 10 µM, first compound 0.0316 µM.
Setting [31] is: second compound 10 µM, first compound 0.1 µM.
[32] abbreviates: second compound 10 µM, first compound 0.316 µM.
The mark [33] stands for this setting: second compound 10 µM, first compound 1 µM.
The mark [34] stands for this setting: second compound 10 µM, first compound 3.16 µM.
[35] abbreviates: second compound 10 µM, first compound 10 µM.

Regarding `CCCS(=O)(=O)Nc1ccc(F)c(C(=O)c2c[nH]c3ncc(-c4ccc(Cl)cc4)cc23)c1F` + CC(C)NCC(C(=O)N1CCN(c2ncnc3c2C(C)CC3O)CC1)c1ccc(Cl)cc1, the pIC50 was under 5.00 under setting [1]; under 5.00 under setting [2]; under 5.00 under setting [3]; under 5.00 under setting [4]; 7.50 under setting [5]. Besides, the viability, T/C was 97% under setting [6]; 90% under setting [7]; 90.3% under setting [8]; 98.8% under setting [9]; 98.5% under setting [10]; 101% under setting [11]. Also, the viability, T/C under setting [12] was 85.4%; the viability, T/C under setting [13] was 76.6%; the viability, T/C under setting [14] is 86.3%; the viability, T/C under setting [15] is 76.5%; the viability, T/C under setting [16] was 80.2%; the viability, T/C under setting [17] was 85.2%. Further, the viability, T/C was 73.2% under setting [18]; 70.3% under setting [19]; 69.1% under setting [20]; 64.5% under setting [21]; 71.3% under setting [22]; 76.6% under setting [23]. The viability, T/C under setting [24] was 59.4%; the viability, T/C under setting [25] is 60.1%; the viability, T/C under setting [26] is 53.5%; the viability, T/C under setting [27] is 52.7%; the viability, T/C under setting [28] was 79.8%; the viability, T/C under setting [29] was 60%. Also, the viability, T/C was 43.4% under setting [30]; 42.7% under setting [31]; 44.1% under setting [32]; 52.4% under setting [33]; 53.7% under setting [34]; 9.37% under setting [35].
For the molecule `COc1c(OCCCN2CCOCC2)ccc2c3n(c(=NC(=O)c4cnc(N)nc4)nc12)CCN3`, the viability, T/C by setting is: (compound 0.00316 µM) 89.3% and 87.5%; (compound 0.01 µM) 80.2% and 84.9%; (compound 0.0316 µM) 64.7% and 59.9%; (compound 0.1 µM) 32% and 36.9%; (compound 0.316 µM) 14% and 10.5%; (compound 1 µM) 14.2% and 13.4%. Besides, the negative-log IC50 (pIC50) (curve of compound) is 7.28.
Regarding `Cn1ncc(Cl)c1-c1cc(C(=O)NC(CN)Cc2cccc(F)c2)sc1Cl` (stereo unspecified) + CC(C)NCC(C(=O)N1CCN(c2ncnc3c2C(C)CC3O)CC1)c1ccc(Cl)cc1, the pIC50 is, setting by setting: under setting [1], 5.92; under setting [2], 6.00; under setting [3], 5.88; under setting [4], 6.25; under setting [5], over 7.50. Besides, the viability, T/C was 85.2% under setting [6]; 79.4% under setting [7]; 74.2% under setting [8]; 59.2% under setting [9]; 3.8% under setting [10]; 0.14% under setting [11]. Also, the viability, T/C is, setting by setting: under setting [12], 84.1%; under setting [13], 73.7%; under setting [14], 72.5%; under setting [15], 51.1%; under setting [16], 10.7%; under setting [17], 0.13%. Moreover, the viability, T/C by setting is: under setting [18], 74.7%; under setting [19], 70.7%; under setting [20], 67.5%; under setting [21], 63.4%; under setting [22], 7%; under setting [23], 0.12%. Besides, the viability, T/C was 59.9% under setting [24]; 61.4% under setting [25]; 54% under setting [26]; 43.2% under setting [27]; 6.48% under setting [28]; 0.13% under setting [29]. For the same molecule, the viability, T/C under setting [30] is 42.6%; the viability, T/C under setting [31] is 49.1%; the viability, T/C under setting [32] was 47.3%; the viability, T/C under setting [33] is 43.3%; the viability, T/C under setting [34] was 2.17%; the viability, T/C under setting [35] was 0.59%.
With `C=CC(=O)N1CCN(c2nc(=O)n(-c3c(C)ccnc3C(C)C)c3nc(-c4c(O)cccc4F)c(F)cc23)C(C)C1` (stereo unspecified) + CCN1CCN(Cc2ccc(Nc3ncc(F)c(-c4cc(F)c5nc(C)n(C(C)C)c5c4)n3)nc2)CC1, the pIC50 is under 5.00 (curve of first compound, second compound 0.01 µM); under 5.00 (curve of first compound, second compound 0.0316 µM); under 5.00 under setting [1]; under 5.00 under setting [2]; 5.19 under setting [3]. In addition, the viability, T/C is, setting by setting: (second compound 0.01 µM, first compound 0.0316 µM) 97.6%; (second compound 0.01 µM, first compound 0.1 µM) 95.6%; (second compound 0.01 µM, first compound 0.316 µM) 112%; (second compound 0.01 µM, first compound 1 µM) 98.4%; (second compound 0.01 µM, first compound 3.16 µM) 91.4%; (second compound 0.01 µM, first compound 10 µM) 58.8%. Also, the viability, T/C was 98.5% (second compound 0.0316 µM, first compound 0.0316 µM); 94.7% (second compound 0.0316 µM, first compound 0.1 µM); 102% (second compound 0.0316 µM, first compound 0.316 µM); 110% (second compound 0.0316 µM, first compound 1 µM); 76.9% (second compound 0.0316 µM, first compound 3.16 µM); 48.3% (second compound 0.0316 µM, first compound 10 µM). Moreover, the viability, T/C was 117% under setting [6]; 107% under setting [7]; 118% under setting [8]; 101% under setting [9]; 84.4% under setting [10]; 59.4% under setting [11]. Also, the viability, T/C under setting [12] is 106%; the viability, T/C under setting [13] was 106%; the viability, T/C under setting [14] is 111%; the viability, T/C under setting [15] is 94.8%; the viability, T/C under setting [16] is 70.7%; the viability, T/C under setting [17] was 50.9%. The viability, T/C by setting is: under setting [18], 100%; under setting [19], 101%; under setting [20], 96.4%; under setting [21], 78.9%; under setting [22], 62%; under setting [23], 43.1%.
Turning to `Cn1ncnc1[C@H]1c2n[nH]c(=O)c3cc(F)cc(c23)N[C@@H]1c1ccc(F)cc1`, the viability, T/C was 139% and 91.4% (compound 0.000316 µM); 97.3% and 97.9% (compound 0.001 µM); 92.7% and 90% (compound 0.00316 µM); 90.3% and 100% (compound 0.01 µM); 94% and 102% (compound 0.0316 µM); 85.9% and 102% (compound 0.1 µM). The negative logarithm of the IC50 (pIC50) (curve of compound) was under 7.00.
In the case of `CC(C)(C)c1cnc(CSc2cnc(NC(=O)C3CCNCC3)s2)o1`, the viability, T/C (compound 0.00949 µM) was 105% and 109%; the viability, T/C (compound 0.03 µM) is 100% and 104%; the viability, T/C (compound 0.0949 µM) is 51.5% and 37.9%; the viability, T/C (compound 0.3 µM) is 22% and 24.1%; the viability, T/C (compound 0.949 µM) is 27.4% and 28.2%; the viability, T/C (compound 3 µM) was 35.6% and 32.6%. In addition, the pIC50 (curve of compound) was 7.00 and 7.12.
